Measurements as given in patent US20240108625A1, “CDK4/6 INHIBITORS AS A TREATMENT FOR CLONAL HEMATOPOIESIS” (Washington University, priority 2022, published 2024).
“Also recorded” adds a separate entry of the source.

Test system: HSPCs bearing CH mutations
Assay: Genomic analysis of CH clone expansion (change in VAF) in blood of SCLC patients randomized to carboplatin/etoposide with trilaciclib or placebo
Assay type: in vivo, human
Description: To evaluate the effect of trilaciclib on the expansion of CH clones in patients receiving chemotherapy, the following experiments were conducted. Blood samples obtained from a randomized, placebo-controlled trial of trilaciclib in SCLC patients receiving fist-line carboplatin and etoposide chemotherapy were sequenced pre- and post-treatment.
Blood samples were obtained from a clinical trial of SCLC patients receiving first-line carboplatin/etoposide combination chemotherapy randomized to concurrently receive the CDK4/6 inhibitor trilaciclib or placebo (FIG. 1). We performed targeted mutational analysis of genomic DNA from peripheral blood before and after five cycles of carboplatin/etoposide (˜5 months) in 59 individuals, 32 of whom received concurrent trilaciclib with each cycle of chemotherapy (FIG. 1, top row) and 27 who received placebo (FIG. 1, middle row). As a comparator group, sequential samples were obtained from 178 individuals from another longitudinal study (FIG. 1, bottom row) selected as cancer-free and matched in age and length of follow-up to the participants in the SCLC clinical trial. All samples were analyzed as described below to measure how the number of HSPCs bearing CH mutations (reflected by the variant allele frequency [VAF]) changed over time in individuals randomized to receive trilaciclib compared to placebo and to untreated healthy adults.
A custom-targeted CH panel was developed using VariantPlex (ArcherDX), an amplicon sequencing method that leverages bi-directional primers and molecular barcodes (MBCs) to enable reliable detection of extremely low VAF variants. The CH panel included exonic regions of the nine CH genes most commonly mutated in solid tumor patients (DNMT3A, TET2, ASXL1, PPM1D, TP53, CHEK2, JAK2, SRSF2, and SF3B1).
In brief, following DNA fragmentation, ligation with a universal MBC adapter was performed, tagging each DNA molecule with a unique molecular index (UMI) and allowing for unidirectional amplification of the sample using gene-specific primers. The resulting libraries were sequenced using a NovaSeq 6000 instrument. The average unique coverage per sample was 20,746×. Using tumor-normal dilution series from six AML patients, we developed a custom CH variant calling pipeline integrating three variant callers (Mutect2, Vardict, LoFreq) with post-calling filtering to remove germ line variants and artifacts. A critical feature of this pipeline is the empiric estimation of variant-specific error rates using a technical panel of normals consisting of 30 blood samples from children18.
The distribution of mutations within genes was characterized by notable enrichments for DDR genes (PPM1D, TP53, CHEK2) relative to DTA genes. For each CH mutation, the change in VAF between the first and second time points was calculated. […]

For CN1CCN(c2ccc(Nc3ncc4cc5n(c4n3)C3(CCCCC3)CNC5=O)nc2)CC1 [trilaciclib], the “growth suppression of CH clones by gene: TET2” value (SCLC patients, carboplatin/etoposide, FIG. 5) was “largest impact”, the “expansion of CH mutations in the DDR pathway (TP53, CHEK2, PPM1D) following chemotherapy (change in VAF)” value (SCLC patients, concurrent with five cycles of carboplatin/etoposide (~5 months), relative to placebo group) was “reduced expansion following chemotherapy; also recorded: lower expansion with chemotherapy” and the “growth of CH clones bearing mutations in epigenetic modifiers DTA (DNMT3A, TET2, ASXL1)” value (SCLC patients, concurrent with five cycles of carboplatin/etoposide (~5 months), vs placebo) was “suppressed the growth of CH clones”. For the same compound, the “carboplatin-related clonal hematopoiesis (DDR and DTA)” value (carboplatin chemotherapy) was “inhibited carboplatin-related clonal hematopoiesis; also recorded: protects against both DDR and DTA clonal hematopoiesis”.
